Publication PMC8494914, “Elexacaftor is a CFTR potentiator and acts synergistically with ivacaftor during acute and chronic treatment” (Scientific Reports, 2021)

Columns and labels:
R117H-CFTR = biological target: T1, R117H-CFTR (Homo sapiens, UniProt P13569, R117H); experiment: Ussing chamber transepithelial current, acute potentiation; assay type: cell-based
T1 construct: R117H-CFTR expressed in FRT cells

[1] = biological target: T2, cystic fibrosis transmembrane conductance regulator (CFTR) (Homo sapiens, UniProt P13569); experiment: Ussing chamber transepithelial current, concentration-response of acute potentiation; assay type: cell-based
T2 construct: endogenous CFTR in non-CF human nasal epithelial cells
T2 sequence (P13569 whole entry): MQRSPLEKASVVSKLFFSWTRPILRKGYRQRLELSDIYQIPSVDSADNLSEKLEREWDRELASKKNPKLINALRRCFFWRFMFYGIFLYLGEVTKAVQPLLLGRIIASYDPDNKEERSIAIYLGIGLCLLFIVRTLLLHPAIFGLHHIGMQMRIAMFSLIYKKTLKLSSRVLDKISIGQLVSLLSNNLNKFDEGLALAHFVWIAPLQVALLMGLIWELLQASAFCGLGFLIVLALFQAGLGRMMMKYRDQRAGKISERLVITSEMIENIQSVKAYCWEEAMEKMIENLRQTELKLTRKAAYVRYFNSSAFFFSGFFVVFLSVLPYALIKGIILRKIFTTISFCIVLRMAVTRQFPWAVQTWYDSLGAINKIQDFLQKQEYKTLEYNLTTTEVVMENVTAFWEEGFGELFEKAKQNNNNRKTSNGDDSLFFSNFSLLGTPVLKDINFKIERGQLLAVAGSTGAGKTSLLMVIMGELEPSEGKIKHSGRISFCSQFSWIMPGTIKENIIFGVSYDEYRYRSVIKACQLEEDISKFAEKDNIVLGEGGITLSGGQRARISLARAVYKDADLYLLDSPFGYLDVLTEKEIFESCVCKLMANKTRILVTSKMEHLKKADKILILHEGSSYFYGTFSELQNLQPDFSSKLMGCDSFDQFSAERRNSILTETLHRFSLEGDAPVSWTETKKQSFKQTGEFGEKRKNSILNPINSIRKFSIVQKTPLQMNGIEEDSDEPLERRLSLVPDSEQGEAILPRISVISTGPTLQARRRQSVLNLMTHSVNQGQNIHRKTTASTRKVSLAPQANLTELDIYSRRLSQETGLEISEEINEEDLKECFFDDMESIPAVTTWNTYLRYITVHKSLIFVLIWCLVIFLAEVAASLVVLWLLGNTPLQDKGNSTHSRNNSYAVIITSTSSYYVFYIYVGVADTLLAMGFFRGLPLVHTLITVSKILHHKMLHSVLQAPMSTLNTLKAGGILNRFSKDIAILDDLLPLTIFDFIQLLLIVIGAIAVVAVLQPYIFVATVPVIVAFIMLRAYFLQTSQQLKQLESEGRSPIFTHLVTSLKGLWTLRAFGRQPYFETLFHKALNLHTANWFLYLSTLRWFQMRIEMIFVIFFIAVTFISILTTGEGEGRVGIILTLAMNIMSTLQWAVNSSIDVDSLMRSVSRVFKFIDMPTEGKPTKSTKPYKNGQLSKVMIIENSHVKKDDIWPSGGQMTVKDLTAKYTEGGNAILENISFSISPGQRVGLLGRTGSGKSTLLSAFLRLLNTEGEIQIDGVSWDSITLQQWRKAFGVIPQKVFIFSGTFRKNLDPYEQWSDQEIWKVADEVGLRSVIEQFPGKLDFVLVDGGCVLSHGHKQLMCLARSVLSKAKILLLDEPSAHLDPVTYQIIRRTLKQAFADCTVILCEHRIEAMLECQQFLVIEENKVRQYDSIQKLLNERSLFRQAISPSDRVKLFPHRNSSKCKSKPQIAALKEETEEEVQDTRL

T1 sequence (P13569 whole entry R117H): as the sequence (P13569 whole entry) above, with R117H counted along it

| Structure (SMILES) | Ussing chamber transepithelial current, acute potentiation (R117H-CFTR) | EC50 [1] [nM] |
| --- | --- | --- |
| Cc1nn(C)cc1S(=O)(=O)NC(=O)c1ccc(-n2ccc(OCC(C)(C)C(F)(F)F)n2)nc1N1C[C@@H](C)CC1(C)C [VX-445, elexacaftor] | We also found that VX-445 potentiates R117H-CFTR expressed in FRT cells | 1.5 ± 1.4 |
| CC(C)(C)c1cc(C(C)(C)C)c(NC(=O)c2c[nH]c3ccccc3c2=O)cc1O [VX-770, ivacaftor] | VX-445 and VX-770 did not exhibit the same high degree of synergy in potentiating R117H-CFTR | – |
